System: NCIH929.1 cells
Test: Cell viability assay for Table 2 (CellTiter-Glo 2.0, ATP quantification, 96 hr)
Type: cell-based
Details: 96 h, NCIH929.1 cell viability, 96 hr, top concentration 1 μM, 14 points half log titration; read-out: IC50
Source text: Cell Viability Assay for Table 2
CellTiter-Glo® 2.0 Assay was purchased from Promega (Madison, Wis., USA). NCIH929.1 cell line was purchased from ATCC (Manassas, Va., USA). Cell culture flasks and 384-well microplates were acquired from VWR (Radnor, Pa., USA).

Row | SMILES | IC50 [nM]
1 | CC1(C(=O)N2CCC(c3cnn(Cc4ccc5c6c(cccc46)C(=O)N5C4CCC(=O)NC4=O)c3)CC2)CCC1 (stereo not shown) [Compound 270, 3-[6-[[4-[1-(1-methylcyclobutanecarbonyl)-4-piperidyl]pyrazol-1-yl]methyl]-2-oxo-benzo[cd]indol-1-yl]piperidine-2,6-dione] | < 1
2 | O=C1CCC(N2C(=O)c3cccc4c(Cc5cnn(C6CCCCC6)c5)ccc2c34)C(=O)N1 (stereo not shown) [Compound 162, 3-[6-[(1-cyclohexylpyrazol-4-yl)methyl]-2-oxo-benzo[cd]indol-1-yl]piperidine-2,6-dione] | < 1
3 | CC1(CN2CCC(n3cc(Cc4ccc5c6c(cccc46)C(=O)N5C4CCC(=O)NC4=O)cn3)CC2)CCC1 (stereo not shown) [Compound 55, 3-(6-((1-(1-((1-methylcyclobutyl)methyl)piperidin-4-yl)-1H-pyrazol-4-yl)methyl)-2-oxobenzo[cd]indol-1(2H)-yl)piperidine-2,6-dione] | < 1
4 | CC1(n2cc(Cc3ccc4c5c(cccc35)C(=O)N4C3CCC(=O)NC3=O)cn2)CCN(c2ncccc2F)CC1 (stereo not shown) [Compound 126, 3-[6-[[1-[1-(3-fluoro-2-pyridyl)-4-methyl-4-piperidyl]pyrazol-4-yl]methyl]-2-oxo-benzo[cd]indol-1-yl]piperidine-2,6-dione] | < 1
5 | CC1(CN2CCC(n3cc(C4(c5ccc6c7c(cccc57)C(=O)N6C5CCC(=O)NC5=O)CC4)cn3)CC2)CCC1 (stereo not shown) [Compound 164, 3-[6-[1-[1-[1-[(1-methylcyclobutyl)methyl]-4-piperidyl]pyrazol-4-yl]cyclopropyl]-2-oxo-benzo[cd]indol-1-yl]piperidine-2,6-dione] | < 100
6 | O=C1CCC(N2C(=O)c3cccc4c(Cc5ccc(CN6CCN(c7ccccc7F)CC67CC7)cc5)ccc2c34)C(=O)N1 (stereo not shown) [Compound 135, 3-[6-[[4-[[7-(2-fluorophenyl)-4,7-diazaspiro[2.5]octan-4-yl]methyl]phenyl]methyl]-2-oxo-benzo[cd]indol-1-yl]piperidine-2,6-dione] | < 1
7 | CC(C)(C#N)C(=O)N1CCC(C)(n2cc(Cc3ccc4c5c(cccc35)C(=O)N4C3CCC(=O)NC3=O)cn2)CC1 (stereo not shown) [Compound 80, 3-(4-(4-((1-(2,6-dioxopiperidin-3-yl)-2-oxo-1,2-dihydrobenzo[cd]indol-6-yl)methyl)-1H-pyrazol-1-yl)-4-methylpiperidin-1-yl)-2,2-dimethyl-3-oxopropanenitrile] | < 1
8 | CC1(n2cc(Cc3ccc4c5c(cccc35)C(=O)N4C3CCC(=O)NC3=O)cn2)CCN(C(=O)C23COC(C2)C3)CC1 (stereo not shown) [Compound 71, 3-(6-{1-[4-Methyl-1-(2-oxa-bicyclo[2.1.1]hexane-4-carbonyl)-piperidin-4-yl]-1H-pyrazol-4-ylmethyl}-2-oxo-2H-benzo[cd]indol-1-yl)-piperidine-2,6-dione] | < 1
9 | C[C@@H]1CN(Cc2ccc(Cc3ccc4c5c(cccc35)C(=O)N4C3CCC(=O)NC3=O)cc2)C[C@H](C)O1 (stereo partly drawn) [Compound 231, 3-(6-(4-(((2R,6S)-2,6-dimethylmorpholino)methyl)benzyl)-2-oxobenzo[cd]indol-1(2H)-yl)piperidine-2,6-dione] | < 1
10 | O=C1CCC(N2C(=O)c3cccc4c(Cc5ccc(C(=O)N6CCN(c7ccccc7F)CC6)cc5)ccc2c34)C(=O)N1 (stereo not shown) [Compound 134, 3-[6-[[4-[4-(2-fluorophenyl)piperazine-1-carbonyl]phenyl]methyl]-2-oxo-benzo[cd]indol-1-yl]piperidine-2,6-dione] | < 1
11 | COC(c1cnn(C2CCN(C(=O)C3(C)CCC3)CC2)c1)c1ccc2c3c(cccc13)C(=O)N2C1CCC(=O)NC1=O (stereo not shown) [Compound 247, 3-[6-[methoxy-[1-[1-(1-methylcyclobutanecarbonyl)-4-piperidyl]pyrazol-4-yl]methyl]-2-oxo-benzo[cd]indol-1-yl]piperidine-2,6-dione] | < 1
12 | CC1(n2cc(Cc3ccc4c5c(cccc35)C(=O)N4C3CCC(=O)NC3=O)cn2)CCN(C(=O)C23CCN(CC2)C3)CC1 (stereo not shown) [Compound 74, 3-(6-((1-(1-(1-azabicydo[2.2.1]heptane-4-carbonyl)-4-methylpiperidin-4-yl)-1H-pyrazol-4-yl)methyl)-2-oxobenzo[cd]indol-1(2H)-yl)piperidine-2,6-dione] | < 100
13 | CC1(C(=O)N2CCC(n3cc(S(=O)(=O)c4ccc5c6c(cccc46)C(=O)N5C4CCC(=O)NC4=O)cn3)CC2)CCC1 (stereo not shown) [Compound 175, 3-[6-[1-[1-(1-methylcyclobutanecarbonyl)-4-piperidyl]pyrazol-4-yl]sulfonyl-2-oxo-benzo[cd]indol-1-yl]piperidine-2,6-dione] | < 100
14 | N#Cc1ccc(N2CCN(Cc3ccnn3Cc3ccc4c5c(cccc35)C(=O)N4C3CCC(=O)NC3=O)CC2)c(F)c1 (stereo not shown) [Compound 209, 4-(4-((1-((1-(2,6-dioxopiperidin-3-yl)-2-oxo-1,2-dihydrobenzo[cd]indol-6-yl)methyl)-1-H-pyrazol-5-yl)methyl)piperazin-1-yl)-3-fluorobenzonitrile] | < 100
15 | O=C1CC[C@H](N2C(=O)c3cccc4c(Cc5ccc(CN6CCOCC6)cc5)ccc2c34)C(=O)N1 (single isomer, unassigned) [Compound 219, 3-(6-(4-(morpholinomethyl)benzyl)-2-oxobenzo[cd]indol-1(2H)-yl)piperidine-2,6-dione] | < 1
16 | CC12CC(C(=O)N3CCC(n4cc(Cc5ccc6c7c(cccc57)C(=O)N6C5CCC(=O)NC5=O)cn4)CC3)(CCO1)C2 (stereo not shown) [Compound 49, 3-(6-((1-(1-(1-methyl-2-oxabicyclo[3.1.1]heptane-5-carbonyl)piperidin-4-yl)-1H-pyrazol-4-yl)methyl)-2-oxobenzo[cd]indol-1(2H)-yl)piperidine-2,6-dione] | < 1
17 | CC(=O)N1CCC(C)(n2cc(Cc3ccc4c5c(cccc35)C(=O)N4C3CCC(=O)NC3=O)cn2)CC1 (stereo not shown) [Compound 75, 3-(6-((1-(1-acetyl-4-methylpiperidin-4-yl)-1H-pyrazol-4-yl)methyl)-2-oxobenzo[cd]indol-1(2H)-yl)piperidine-2,6-dione] | < 1
18 | CN(C)C1(C(=O)N2CCC(n3cc(Cc4ccc5c6c(cccc46)C(=O)N5C4CCC(=O)NC4=O)cn3)CC2)CCC1 (stereo not shown) [Compound 287, 3-[6-[[1-[1-[1-(dimethylamino)cyclobutanecarbonyl]-4-piperidyl]pyrazol-4-yl]methyl]-2-oxo-benzo[cd]indol-1-yl]piperidine-2,6-dione] | < 1
19 | CC1(CN2CCN(c3ccc(Cc4ccc5c6c(cccc46)C(=O)N5C4CCC(=O)NC4=O)cc3)CC2)CCC1 (stereo not shown) [Compound 168, 3-[6-[[4-[4-[(1-methylcyclobutyl)methyl]piperazin-1-yl]phenyl]methyl]-2-oxo-benzo[cd]indol-1-yl]piperidine-2,6-dione] | < 1
20 | CC(C)(C)OC(=O)N1CCC(n2cc(Cc3ccc4c5c(cccc35)C(=O)N4C3CCC(=O)NC3=O)cn2)CC1 (racemic) [Compound 140, tert-butyl 4-(4-((1-(2,6-dioxopiperidin-3-yl)-2-oxo-1,2-dihydrobenzo[cd]indol-6-yl)methyl)-1H-pyrazol-1-yl)piperidine-1-carboxylate] | < 1
21 | NCC1(n2cc(Cc3ccc4c5c(cccc35)C(=O)N4C3CCC(=O)NC3=O)cn2)CCN(C(=O)C2(C(F)(F)F)CC2)CC1 (stereo not shown) [Compound 194, 3-[6-[[1-[4-(aminomethyl)-1-[1-(trifluoromethyl)cyclopropanecarbonyl]-4-piperidyl]pyrazol-4-yl]methyl]-2-oxo-benzo[cd]indol-1-yl]piperidine-2,6-dione] | < 100
22 | CC1(n2cc(Cc3ccc4c5c(cccc35)C(=O)N4C3CCC(=O)NC3=O)cn2)CCN(C(=O)C23C4C5C6C4C2C6C53)CC1 (stereo not drawn) [Compound 70, 3-(6-((1-(l-(cubane-1-carbonyl)-4-methylpiperidin-4-yl)-1H-pyrazol-4-yl)methyl)-2-oxobenzo[cd]indol-1(2H)-yl)piperidine-2,6-dione] | < 1
23 | O=C1CCC(N2C(=O)c3cccc4c(Cc5ccc(CN6CCS(=O)(=O)CC6)cc5)ccc2c34)C(=O)N1 (stereo not shown) [Compound 122, 3-(6-(4-((1,4-dioxidothiomorpholino)methyl)benzyl)-2-oxobenzo[cd]indol-1(2H)-yl)piperidine-2,6-dione] | < 1
24 | CC(c1ccc(Cc2ccc3c4c(cccc24)C(=O)N3C2CCC(=O)NC2=O)cc1)N1CCN(c2ccccc2F)CC1 (single isomer, unassigned) [Compound 284, 3-[6-[[4-[1-[4-(2-fluorophenyl)piperazin-1-yl]ethyl]phenyl]methyl]-2-oxo-benzo[cd]indol-1-yl]piperidine-2,6-dione] | < 1
25 | CC1(C(=O)N2CCC(C)(n3cc(Cc4ccc5c6c(cccc46)C(=O)N5C4CCC(=O)NC4=O)cn3)CC2)COC1 (stereo not shown) [Compound 94, 3-(6-((1-(4-methyl-1-(3-methyloxetane-3-carbonyl)piperidin-4-yl)-1H-pyrazol-4-yl)methyl)-2-oxobenzo[cd]indol-1(2H)-yl)piperidine-2,6-dione] | < 1
26 | O=C1CCC(N2C(=O)c3cccc4c(Cc5cnn(C6CC(OCc7ccccc7)C6)c5)ccc2c34)C(=O)N1 (stereo not shown) [Compound 177, 3-[6-[[1-(3-benzyloxycyclobutyl)pyrazol-4-yl]methyl]-2-oxo-benzo[cd]indol-1-yl]piperidine-2,6-dione] | < 100
27 | O=C1CCC(N2C(=O)c3cccc4c(Cc5ccc(CN6CCC7(CCCO7)CC6)nc5)ccc2c34)C(=O)N1 (racemic) [Compound 268, 3-[6-[[6-(1-oxa-8-azaspiro[4.5]decan-8-ylmethyl)-3-pyridyl]methyl]-2-oxo-benzo[cd]indol-1-yl]piperidine-2,6-dione] | < 1

Same assay, conditions: NCIH929.1 cell viability, 96 hr, top concentration 1 μM, 14 points half log titration; read-out: IC50

Row | SMILES | IC50 [nM]
28 | N#Cc1ccc(N2CCN(Cc3cnn(Cc4ccc5c6c(cccc46)C(=O)N5C4CCC(=O)NC4=O)c3)CC2)c(F)c1 (single isomer, unassigned) [Compound 130, 4-[4-[[1-[[1-[2,6-dioxo-3-piperidyl]-2-oxo-benzo[cd]indol-6-yl]methyl]pyrazol-4-yl]methyl]piperazin-1-yl]-3-fluoro-benzonitrile] | < 1
